According to patent US20230219965A1 (KSQ Therapeutics, Inc., priority 2020, published 2023):
Where two headings read alike, the source gives them in different places.

Experiments:
[1] = Liver microsomal metabolic stability, rat liver microsomes (RLM); conditions: rat, liver microsomes, t1/2 (min) in RLM, 1 μM compound, 1 mg/mL microsomes, NADPH
Experimental: Samples were prepared by adding 222.5 μL of a master solution (100 mM phosphate buffer and 1 mg/mL liver microsomes (HLM or RLM)) and 25 μL of a 10 mM NADPH solution to incubation plates, which were then warmed for 10 min. Each compound was separately dissolved in DMSO to prepare 10 mM stock solutions, which were then diluted to 100 μM with acetonitrile. A reaction was started by adding 2.5 μL of the 100 μM solution of each compound to separate incubation plates such that the final concentration of for each compound in each plate was 1 μM.
25 μL aliquots of each sample were taken at 0.5, 5, 10, 15, 20 and 30 minutes, and the reaction was stopped by adding 5 volumes of cold acetonitrile with IS (100 nM alprazolam, 200 nM caffeine and 100 nM tolbutamide). The samples were then centrifuged at 3,220 G for 30 minutes, and 100 μL of the supernatant fluid was mixed with 100 μL of ultra-pure H2O.
The samples were then analyzed by LC-MS/MS. Peak areas were determined from extracted ion chromatograms. Slope values (k) were determined by linear regression of the natural logarithm of the remaining percentage of the compound vs. incubation time curve. The in vitro half-life (in vitro t1/2) was determined from the slope value using the following equation:

[2] = target: USP1/UAF1 enzyme (Homo sapiens, UniProt O94782); experiment: USP1/UAF1 deubiquitination assay (ubiquitin-rhodamine 110 substrate); assay type: biochemical; conditions: read-out: USP1 IC50 (Ub-Rho)
Method in brief: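 0.05 nM USP1/UAF1 was preincubated 10 min with compounds (dose response from 10 μM) in 50 mM Tris-HCl pH 7.8, 0.5 mM EDTA, 0.01% BSA, 1 mM DTT, 0.01% Tween-20. 150 nM ubiquitin-rhodamine 110 started the reaction, read kinetically 30 min at Ex480/Em540; IC50 by four-parameter fit versus no-enzyme and DMSO controls.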

[3] = Liver microsomal metabolic stability, human liver microsomes (HLM); conditions: human, liver microsomes
[4] = ADME solubility determination in PBS at pH 2.0 and pH 7.4; assay type: physicochemical; conditions: phosphate buffered saline, 25 °C, thermodynamic from solid
Method in brief: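 Dried 10 mM DMSO stock residues taken up in PBS pH 7.4 or pH 2.0, shaken 24 h at 25° C. After centrifugation, supernatant quantified by LC-MS/MS against a standard of known concentration, with a dilution factor applied.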

[5] = system: Ub-PCNA levels in the nucleus of ES2 cells (USP1 activity); experiment: ES2 Ub-PCNA immunofluorescence (IF) assay; assay type: cell-based; conditions: Homo sapiens, read-out: USP1 IC50 (Ub-PCNA)
Method in brief: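 Cells plated overnight, then compound-treated for 3 h at 37° C (0.3% DMSO final), methanol-fixed and stained with anti-Ub-PCNA plus DAPI. Per-nucleus Ub-PCNA intensity imaged; cells above the 95% cutoff of untreated wells counted as positive, and percent positive cells used to derive AC50.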

[6] = pH 2, aqueous buffer, PBS pH 2.0, 25° C., read-out: Solubility at pH 2.0
[7] = pH 7.4, aqueous buffer, PBS pH 7.4, 25° C., read-out: Solubility at pH 7.4
[8] = ES-2, ES2 cells, 3 hours, Ub-PCNA immunofluorescence

Chain of USP1/UAF1 enzyme (O94782 whole entry): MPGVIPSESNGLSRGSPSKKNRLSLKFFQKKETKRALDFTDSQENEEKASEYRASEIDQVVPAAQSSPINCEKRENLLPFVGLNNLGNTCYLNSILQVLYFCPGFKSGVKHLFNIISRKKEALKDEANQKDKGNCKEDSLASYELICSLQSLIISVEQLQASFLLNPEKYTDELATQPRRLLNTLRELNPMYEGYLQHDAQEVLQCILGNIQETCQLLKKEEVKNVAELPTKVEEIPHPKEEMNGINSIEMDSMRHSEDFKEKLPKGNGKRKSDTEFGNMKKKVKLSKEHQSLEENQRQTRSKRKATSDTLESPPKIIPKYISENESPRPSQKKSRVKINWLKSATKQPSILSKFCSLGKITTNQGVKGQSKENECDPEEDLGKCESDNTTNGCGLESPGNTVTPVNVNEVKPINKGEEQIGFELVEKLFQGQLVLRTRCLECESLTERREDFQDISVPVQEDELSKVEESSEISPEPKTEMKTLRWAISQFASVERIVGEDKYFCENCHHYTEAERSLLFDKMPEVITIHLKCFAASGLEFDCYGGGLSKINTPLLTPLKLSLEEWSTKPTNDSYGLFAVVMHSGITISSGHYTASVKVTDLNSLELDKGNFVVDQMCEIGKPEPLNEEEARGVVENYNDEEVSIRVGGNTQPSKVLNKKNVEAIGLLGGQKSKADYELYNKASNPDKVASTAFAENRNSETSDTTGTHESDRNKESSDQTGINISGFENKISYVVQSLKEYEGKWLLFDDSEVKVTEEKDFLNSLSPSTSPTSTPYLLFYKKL
Chain of USP1/UAF1 enzyme (Q8TAF3 whole entry partner): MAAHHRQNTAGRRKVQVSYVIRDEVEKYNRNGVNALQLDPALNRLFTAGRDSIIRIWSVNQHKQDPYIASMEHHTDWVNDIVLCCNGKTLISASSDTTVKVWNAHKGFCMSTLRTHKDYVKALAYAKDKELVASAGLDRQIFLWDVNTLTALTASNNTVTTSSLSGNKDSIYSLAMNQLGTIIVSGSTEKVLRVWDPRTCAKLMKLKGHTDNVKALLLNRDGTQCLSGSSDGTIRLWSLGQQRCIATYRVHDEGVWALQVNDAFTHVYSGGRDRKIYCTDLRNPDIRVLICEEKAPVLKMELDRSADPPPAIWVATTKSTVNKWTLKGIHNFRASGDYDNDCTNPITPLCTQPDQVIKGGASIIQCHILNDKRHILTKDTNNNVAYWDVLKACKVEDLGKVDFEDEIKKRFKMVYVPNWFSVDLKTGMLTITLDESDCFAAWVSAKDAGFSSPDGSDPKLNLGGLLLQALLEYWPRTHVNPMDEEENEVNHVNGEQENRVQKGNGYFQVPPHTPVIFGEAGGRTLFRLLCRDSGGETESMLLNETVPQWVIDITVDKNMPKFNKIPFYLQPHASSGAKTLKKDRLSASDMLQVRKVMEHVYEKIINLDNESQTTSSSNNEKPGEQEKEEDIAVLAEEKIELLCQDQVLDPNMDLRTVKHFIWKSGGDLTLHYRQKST

Row | SMILES | half-life at 1 μM [1] [min] | IC50 [2] [nM] | half-life at 1 μM [3] [min] | solubility at 24 h [4, 6] [µM] | solubility at 24 h [4, 7] [µM] | IC50 [5, 8] [nM] | IC50 ([5]; ES-2, 3 h) [nM]
1 | CC(C)n1ncc(Cl)c1-c1cc2n(n1)CCC(=O)N2Cc1ccc(-c2ncccc2N(C)C)cc1 [Example 321] | < 25 | < 100 | < 25 | ≥ 10 | < 10 | < 100 | –
2 | CCn1cc(C(F)(F)F)nc1-c1ccc(CNC2CCCn3nc(-c4c(Cl)cnn4C(C)C)cc32)cc1 (stereo not drawn) [Example 330, 2-(4-chloro-1-isopropyl-1H-pyrazol-5-yl)-N-(4-(1-ethyl-4-(trifluoromethyl)-1H-imidazol-2-yl)benzyl)-4,5,6,7-tetrahydropyrazolo[1,5-α]pyridin-4-amine] | < 25 | < 100 | < 25 | ≥ 10 | < 10 | – | < 100
3 | CCn1cc(C(F)(F)F)nc1-c1ccc(N(CCO)C2CCCn3nc(-c4c(Cl)cnn4C(C)C)cc32)cc1F (stereo not drawn) [Example 331, 2-((2-(4-chloro-1-isopropyl-1H-pyrazol-5-yl)-4,5,6,7-tetrahydropyrazolo[1,5-α]pyridin-4-yl)(4-(1-ethyl-4-(trifluoromethyl)-1H-imidazol-2-yl)-3-fluorophenyl)amino)-ethan-1-ol] | < 25 | < 100 | < 25 | < 10 | < 10 | < 100 | –
4 | CCn1cc(C(F)(F)F)nc1-c1ccc([C@@H](C)n2c(=O)ccn3nc(-c4c(OC)ncnc4C4CC4)cc23)cc1 [Example 335, (R)-2-(4-cyclopropyl-6-methoxypyrimidin-5-yl)-4-(1-(4-(1-ethyl-4-(trifluoromethyl)-1H-imidazol-2-yl)phenyl)ethyl)pyrazolo[1,5-a]pyrimidin-5(4H)-one] | > 25 | < 100 | > 25 | ≥ 10 | < 10 | < 100 | –
5 | CCn1cc(C(F)(F)F)nc1-c1ccc([C@H](C)n2c(=O)ccn3nc(-c4c(OC)ncnc4C4CC4)cc23)cc1 [Example 336, (S)-2-(4-cyclopropyl-6-methoxypyrimidin-5-yl)-4-(1-(4-(1-ethyl-4-(trifluoromethyl)-1H-imidazol-2-yl)phenyl)ethyl)pyrazolo[1,5-a]pyrimidin-5(4H)-one] | > 25 | < 100 | < 25 | ≥ 10 | < 10 | < 100 | –
6 | CCn1cc(C(F)(F)F)nc1-c1ccc([C@@H](C)n2c(=O)ccn3nc(-c4c(OC)ncnc4C4CC4)nc23)cc1 [Example 338, (R)-2-(4-cyclopropyl-6-methoxypyrimidin-5-yl)-4-(1-(4-(1-ethyl-4-(trifluoromethyl)-1H-imidazol-2-yl)phenyl)ethyl)-[1,2,4]triazolo[1,5-a]pyrimidin-5(4H)-one] | < 25 | < 100 | > 25 | ≥ 10 | < 10 | < 100 | –
7 | CCn1cc(C(F)(F)F)nc1-c1ccc([C@H](C)n2c(=O)ccn3nc(-c4c(OC)ncnc4C4CC4)nc23)cc1 [Example 339, (S)-2-(4-cyclopropyl-6-methoxypyrimidin-5-yl)-4-(1-(4-(1-ethyl-4-(trifluoromethyl)-1H-imidazol-2-yl)phenyl)ethyl)-[1,2,4]triazolo[1,5-a]pyrimidin-5(4H)-one] | > 25 | < 100 | < 25 | ≥ 10 | < 10 | < 100 | –
8 | CCn1cc(C(F)(F)F)nc1-c1ccc(C(C)n2c(=O)ccn3nc(-c4c(OC)ncnc4C4CC4)nc23)cc1 (stereo not drawn) [Example 340, 2-(4-cyclopropyl-6-methoxypyrimidin-5-yl)-4-(1-(4-(1-ethyl-4-(trifluoromethyl)-1H-imidazol-2-yl)phenyl)ethyl)-[1,2,4]triazolo[1,5-a]pyrimidin-5(4H)-one] | > 25 | < 100 | > 25 | ≥ 10 | ≥ 10 | < 100 | –

Continued, in another order:

Row | half-life at 1 μM [1] [min] | IC50 [2] [nM] | half-life at 1 μM [3] [min] | solubility at 24 h [4, 6] [µM] | solubility at 24 h [4, 7] [µM] | IC50 [5, 8] [nM] | SMILES | IC50 ([5]; ES-2, 3 h) [nM]
9 | < 25 | < 100 | < 25 | ≥ 10 | < 10 | < 100 | CCn1cc(C(F)(F)F)nc1-c1ccc(CN2CC(C)(C)Cn3nc(-c4c(OC)ncnc4C4CC4)cc32)cc1F [Example 327, 2-(4-cyclopropyl-6-methoxypyrimidin-5-yl)-4-(4-(1-ethyl-4-(trifluoromethyl)-1H-imidazol-2-yl)-3-fluorobenzyl)-6,6-dimethyl-4,5,6,7-tetrahydropyrazolo[1,5-α]pyrimidine] | –
10 | > 25 | < 100 | > 25 | ≥ 10 | ≥ 10 | < 100 | CCn1cc(C(F)(F)F)nc1-c1ccc(Cn2c(=O)ccn3nc(-c4c(OC)ncnc4C4CC4)cc23)cc1 [Example 332, 2-(4-cyclopropyl-6-methoxypyrimidin-5-yl)-4-(4-(1-ethyl-4-(trifluoromethyl)-1H-imidazol-2-yl)benzyl)pyrazolo[1,5-α]pyrimidin-5(4H)-one] | –
11 | > 25 | < 100 | > 25 | < 10 | < 10 | < 100 | CCn1cc(C(F)(F)F)nc1-c1ccc([C@@H](C)n2c(=O)ccn3nc(-c4c(OC)ncnc4C4CC4)cc23)cc1F [Example 333, (R)-2-(4-cyclopropyl-6-methoxypyrimidin-5-yl)-4-(1-(4-(1-ethyl-4-(trifluoromethyl)-1H-imidazol-2-yl)-3-fluorophenyl)ethyl)pyrazolo[1,5-α]pyrimidin-5(4H)-one] | –
12 | > 25 | < 100 | > 25 | ≥ 10 | < 10 | < 100 | CCn1cc(C(F)(F)F)nc1-c1ccc(Cn2c(=O)ccn3nc(-c4c(OC)ncnc4C4CC4)nc23)cc1 [Example 337, 2-(4-cyclopropyl-6-methoxypyrimidin-5-yl)-4-(4-(1-ethyl-4-(trifluoromethyl)-1H-imidazol-2-yl)benzyl)-[1,2,4]triazolo[1,5-α]pyrimidin-5(4H)-one] | –
13 | > 25 | < 100 | > 25 | < 10 | < 10 | < 100 | CCn1cc(C(F)(F)F)nc1-c1ccc(Cn2c(=O)ccn3nc(-c4c(Cl)cnn4C(C)C)nc23)cc1F [Example 343, 2-(4-chloro-1-isopropyl-1H-pyrazol-5-yl)-4-(4-(1-ethyl-4-(trifluoromethyl)-1H-imidazol-2-yl)-3-fluorobenzyl)-[1,2,4]triazolo[1,5-a]pyrimidin-5(4H)-one] | –
14 | > 25 | < 100 | > 25 | < 10 | < 10 | < 100 | CCn1cc(C(F)(F)F)nc1-c1ccc(Cn2c(=O)ccn3nc(-c4c(OC(F)F)ncnc4C4CC4)nc23)cc1 [Example 345] | –
15 | > 25 | < 100 | > 25 | < 10 | < 10 | < 100 | COc1ncnc(C2CC2)c1-c1nc2n(Cc3ccc(-c4nc(C(F)(F)F)cn4C(C)C)c(F)c3OC)c(=O)ccn2n1 [Example 346, 2-(4-cyclopropyl-6-methoxypyrimidin-5-yl)-4-(3-fluoro-4-(1-isopropyl-4-(trifluoromethyl)-1H-imidazol-2-yl)-2-methoxybenzyl)-[1,2,4]triazolo[1,5-a]pyrimidin-5(4H)-one] | –
16 | > 25 | < 100 | > 25 | ≥ 10 | ≥ 10 | < 100 | CCn1cc(C(F)(F)F)nc1-c1ccc(CN2C(=O)C(C)Cn3nc(-c4c(OC)ncnc4C4CC4)nc32)cc1F (stereo not drawn) [Example 347, 2-(4-cyclopropyl-6-methoxypyrimidin-5-yl)-4-(4-(1-ethyl-4-(trifluoromethyl)-1H-imidazol-2-yl)-3-fluorobenzyl)-6-methyl-6,7-dihydro-[1,2,4]triazolo[1,5-α]pyrimidin-5(4H)-one] | –
17 | > 25 | < 100 | > 25 | < 10 | < 10 | < 100 | CCn1cc(C(F)(F)F)nc1-c1ccc(CN2C(=O)C(C)Cn3nc(-c4c(Cl)cnn4C(C)C)nc32)cc1F (stereo not drawn) [Example 350, 2-(4-chloro-1-isopropyl-1H-pyrazol-5-yl)-4-(4-(1-ethyl-4-(trifluoromethyl)-1H-imidazol-2-yl)-3-fluorobenzyl)-6-methyl-6,7-dihydro-[1,2,4]triazolo[1,5-a]pyrimidin-5(4H)-one] | –
